In patent publication US20240344241A1, “PROTEINACEOUS MOLECULES AND USES THEREFOR” (THE UNIVERSITY OF QUEENSLAND, priority 2021, published 2024):
Bridge positions count the residues as written; N and C are the ends. Peptide text beside a SMILES is read from it.

Key:
Human β-FXIIa [1] = biological target: T1, Human β-FXIIa (Homo sapiens, UniProt P00748); assay: FXIIa competitive inhibition assay, fluorescent substrate Boc-QGR-MCA; format: biochemical
T1 construct: Human β-FXIIa was obtained from Molecular Innovations, together with human FXa, human FXIa, human α-thrombin, and human plasma kallikrein; purchased Molecular Innovations; host or cells: purified from human plasma
T1 sequence (P00748 373-615 limits assumed, other chains not shown): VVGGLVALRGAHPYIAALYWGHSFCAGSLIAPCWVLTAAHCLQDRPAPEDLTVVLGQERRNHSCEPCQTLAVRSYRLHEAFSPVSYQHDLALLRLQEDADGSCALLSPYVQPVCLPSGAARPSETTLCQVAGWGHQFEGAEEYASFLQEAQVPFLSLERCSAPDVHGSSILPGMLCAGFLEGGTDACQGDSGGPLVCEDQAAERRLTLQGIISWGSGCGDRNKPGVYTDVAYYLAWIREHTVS
From the text: Cyclic [I7F]MCoFx1 (also referred to as cyclic MCoFx6) was synthesized using solid phase peptide synthesis ([[…]] [SEQ ID NO: 97]). For this inhibitor, Tyr33 was mutated back to serine as per the original mRNA display screen (FIG. 1). Cyclic MCoFx6 was screened using a competitive inhibition assay, with the substrate being changed from a colorimetric substrate (Ac-QRFR-pNA in the data of Tables 7 and 10) to a fluorescent substrate (Boc-QGR-MCA) to allow the assay to be run with a lower concentration of enzyme. The assay was performed as described for Examples 2 and 3, except that the FXIIa concentration was 0.5 nM and the substrate concentration was 50 μM (KM=187 μM).
The new variants were screened using competitive inhibition assays, with the substrate being changed from a colorimetric substrate (Ac-QRFR-pNA in the data of Tables 7 and 10) to a fluorescent substrate (Boc-QGR-MCA) to allow the assay to be run with a lower concentration of enzyme. Assays were performed as described for Examples 2 and 3, except that the FXIIa concentration was 0.5 nM and the substrate concentration was 50 μM (KM=187 μM). […] The effect of amino acid substitutions within loop 2 (Arg12, Arg13), loop 5 (Ala25, Arg27) or loop 6 (Asp34) on the activity of cyclic MCoFx7 against FXIIa was determined (refer to Table 14). […] Additionally, mutating Arg to Glu (reversing the side chain charge) only led to two-fold weaker activity. The adjacent residue Arg13 could also be mutated to Lys with no change in activity. Within loop 5, mutating Ala25 to Lys produced a slight gain in activity, whereas the Ala to Pro mutation led to a slight decrease in activity. Both mutations at Arg27 led to losses in activity in the order of two-fold (His) or 3.2-fold (Gly).
(§1) The activity of acyclic and cyclic MCoFx1-5 and analogues thereof was assessed in competitive inhibition assays, as previously described in Swedberg et al. (2016) J Med Chem, 59: 7287-7292. Human β-FXIIa was obtained from Molecular Innovations, together with human FXa, human FXIa, human α-thrombin, and human plasma kallikrein. Human cationic trypsin and human plasmin were obtained from Sigma-Aldrich, and recombinant human matriptase was sourced from R&D Systems. Recombinant human urokinase (uPA) and recombinant human tissue plasminogen activator (tPA) were expressed in Expi293 cells, as previously described in Li et al. (2019) Chembiochem, 20: 46-50. FXIIa inhibition assays were performed in clear, low-binding 96-well plates using 250 μL (final volume) of assay buffer (0.1 M Tris-HCl pH 8.0, 0.1 M NaCl, 10 mM CaCl2 and 0.005% Triton X-100). Inhibitors were serially diluted and incubated with 10 nM FXIIa at room temperature to reach equilibrium. After adding 100 μM Ac-QRFR-pNA substrate (KM=162 μM), enzymatic activity was measured by monitoring release of the pNA moiety using a TECAN infinite M1000 Pro plate reader (A=405 nm, reading interval, 10 s; assay time course, 7 min). Assays were conducted in three times in duplicate. Substrate kinetic constants (Michaelis-Menten) and inhibition constants (Morrison K) were determined by non-linear regression using Prism 7 (GraphPad). Selectivity assays with off-target proteases were performed in a similar way, except that different concentrations of enzyme and substrate were used, as indicated in Table 16. For assays using a fluorescent substrate (peptide-4-methylcoumaryl-7-amide, MCA), black low-binding 96-well plates were used and activity was measured using a TECAN infinite M1000 pro plate reader (λex 360 nm, λem 460 nm, reading interval, 30 s; assay time course, 5-30 min).

bovine trypsin = biological target: T2, bovine trypsin (Bos taurus, UniProt P00760); assay: Surface plasmon resonance binding to trypsin
T2 sequence (P00760 24-246): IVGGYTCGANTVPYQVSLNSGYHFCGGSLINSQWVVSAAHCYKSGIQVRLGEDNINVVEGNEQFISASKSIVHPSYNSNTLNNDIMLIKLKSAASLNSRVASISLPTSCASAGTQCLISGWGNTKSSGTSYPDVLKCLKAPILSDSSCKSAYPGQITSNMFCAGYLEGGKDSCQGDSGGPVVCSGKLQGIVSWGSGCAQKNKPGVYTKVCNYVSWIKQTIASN

Human β-FXIIa [2] = biological target: T1, Human β-FXIIa; assay: FXIIa competitive inhibition assay, colorimetric substrate Ac-QRFR-pNA; format: biochemical
Description: as §1

[3] = biological target: T3, biotinylated human β-FXIIa (Homo sapiens, UniProt P00748); assay: Surface plasmon resonance binding to FXIIa
T3 construct: purchased Molecular Innovations
T3 sequence (P00748 373-615 limits assumed, other chains not shown): as the sequence (P00748 373-615 limits assumed, other chains not shown) above
Description: Binding kinetics of each peptide towards biotinylated human β-FXIIa (Molecular Innovations) and non-labelled zymogen FXII (Haematologic Technologies) were determined using a Biacore T200 machine (Cytiva). For β-FXIIa binding measurements, the running buffer was HBS-EP+(10 mM HEPES, 150 mM NaCl, 3 mM EDTA and 0.05% (v/v) surfactant P20, pH 7.4). Biotinylated β-FXIIa was immobilized on a Sensor Chip CAP (Cytiva) using Biotin CAPture Reagent (Cytiva). A series of concentrations of each peptide were injected as analyte and the binding kinetics were modelled using a 1:1 binding model. Regeneration of sensor surface was performed after each measurement cycle. For FXII binding measurements, the running buffer was PBST (137 mM NaCl, 2.7 mM KCl, 10 mM Na2HPO4, 1.8 mM KH2PO4, 0.05% Tween-20). Non-labelled FXII was immobilized on a Sensor Chip CM5 (Cytiva) using Amine Coupling Kit (Cytiva), achieving a final immobilization level of 2500 RU. Each peptide was flowed through immobilized FXII at 5 μM for 60 s and allowed dissociation for 150 s.

In the case of `CC[C@H](C)[C@@H]1NC(=O)CNC(=O)CNC(=O)[C@H](CC(=O)O)NC(=O)[C@H](CO)NC(=O)CNC(=O)[C@H](CO)NC(=O)CNC(=O)[C@@H]2CSSC[C@@H]3NC(=O)[C@H](CC(=O)O)NC(=O)[C@H](CO)NC(=O)[C@H](CC(=O)O)NC(=O)[C@H](CCCNC(=N)N)NC(=O)[C@H]([C@@H](C)O)NC(=O)[C@@H]4CSSC[C@H](NC(=O)[C@H]([C@@H](C)CC)NC(=O)[C@H](CSSC[C@H](NC1=O)C(=O)N1CCC[C@H]1C(=O)N[C@@H](CCCNC(=N)N)C(=O)N[C@@H]([C@@H](C)CC)C(=O)NCC(=O)N[C@@H](CCCNC(=N)N)C(=O)N[C@@H](CC(C)C)C(=O)N4)NC(=O)[C@H](C)NC(=O)CNC(=O)[C@@H]1CCCN1C3=O)C(=O)N[C@@H](CCCNC(=N)N)C(=O)N[C@@H](C)C(=O)N[C@@H]([C@@H](C)O)C(=O)N[C@@H](CCCNC(=N)N)C(=O)N[C@@H](Cc1ccccc1)C(=O)N2` [Cyclic [R12T]MCoFx7] (cyclo(ACICRATRFCGSGSDGGICPRIGRLCTRDSDCPG); disulfide 2-19, 4-26, 10-32), the Ki (Human β-FXIIa [1]) is reported as 0.065 ± 0.005 nM.
`CC[C@H](C)[C@@H]1NC(=O)CNC(=O)CNC(=O)[C@H](CC(=O)O)NC(=O)[C@H](CO)NC(=O)CNC(=O)[C@H](CO)NC(=O)CNC(=O)[C@@H]2CSSC[C@@H]3NC(=O)[C@H](CC(=O)O)NC(=O)[C@H](CO)NC(=O)[C@H](CC(=O)O)NC(=O)[C@H](CCCNC(=N)N)NC(=O)[C@H](C(C)C)NC(=O)[C@@H]4CSSC[C@H](NC(=O)[C@H]([C@@H](C)CC)NC(=O)[C@H](CSSC[C@H](NC1=O)C(=O)N1CCC[C@H]1C(=O)N[C@@H](CCCNC(=N)N)C(=O)N[C@@H]([C@@H](C)CC)C(=O)NCC(=O)N[C@@H](CCCNC(=N)N)C(=O)N[C@@H](CC(C)C)C(=O)N4)NC(=O)[C@H](C)NC(=O)CNC(=O)[C@@H]1CCCN1C3=O)C(=O)N[C@@H](CCCNC(=N)N)C(=O)N[C@@H](C)C(=O)N[C@@H]([C@@H](C)O)C(=O)N[C@@H](CCCNC(=N)N)C(=O)N[C@@H](Cc1ccccc1)C(=O)N2` [Cyclic [R12V]MCoFx7] (cyclo(ACICRATRFCGSGSDGGICPRIGRLCVRDSDCPG); disulfide 2-19, 4-26, 10-32) showed a Ki (Human β-FXIIa [1]) of 0.069 ± 0.005 nM.
`CC[C@H](C)[C@@H]1NC(=O)CNC(=O)CNC(=O)[C@H](CC(=O)O)NC(=O)[C@H](CO)NC(=O)CNC(=O)[C@H](CO)NC(=O)CNC(=O)[C@@H]2CSSC[C@@H]3NC(=O)[C@H](CC(=O)O)NC(=O)[C@H](CO)NC(=O)[C@H](CC(=O)O)NC(=O)[C@H](CCCCN)NC(=O)[C@H](CCCNC(=N)N)NC(=O)[C@@H]4CSSC[C@H](NC(=O)[C@H]([C@@H](C)CC)NC(=O)[C@H](CSSC[C@H](NC1=O)C(=O)N1CCC[C@H]1C(=O)N[C@@H](CCCNC(=N)N)C(=O)N[C@@H]([C@@H](C)CC)C(=O)NCC(=O)N[C@@H](CCCNC(=N)N)C(=O)N[C@@H](CC(C)C)C(=O)N4)NC(=O)[C@H](C)NC(=O)CNC(=O)[C@@H]1CCCN1C3=O)C(=O)N[C@@H](CCCNC(=N)N)C(=O)N[C@@H](C)C(=O)N[C@@H]([C@@H](C)O)C(=O)N[C@@H](CCCNC(=N)N)C(=O)N[C@@H](Cc1ccccc1)C(=O)N2` [Cyclic [R13K]MCoFx7] (cyclo(ACICRATRFCGSGSDGGICPRIGRLCRKDSDCPG); disulfide 2-19, 4-26, 10-32) showed a Ki (Human β-FXIIa [1]) of 0.068 ± 0.003 nM.
`CC[C@H](C)[C@@H]1NC(=O)CNC(=O)CNC(=O)[C@H](CC(=O)O)NC(=O)[C@H](CO)NC(=O)CNC(=O)[C@H](CO)NC(=O)CNC(=O)[C@@H]2CSSC[C@@H]3NC(=O)[C@H](CC(=O)O)NC(=O)[C@H](CO)NC(=O)[C@H](CC(=O)O)NC(=O)[C@H](CCCNC(=N)N)NC(=O)[C@H](CCCNC(=N)N)NC(=O)[C@@H]4CSSC[C@H](NC(=O)[C@H]([C@@H](C)CC)NC(=O)[C@H](CSSC[C@H](NC1=O)C(=O)N1CCC[C@H]1C(=O)N[C@@H](CCCNC(=N)N)C(=O)N[C@@H]([C@@H](C)CC)C(=O)NCC(=O)N[C@@H](CCCNC(=N)N)C(=O)N[C@@H](CC(C)C)C(=O)N4)NC(=O)[C@H](C)NC(=O)CNC(=O)[C@@H]1CCCN1C3=O)C(=O)N[C@@H](CCCNC(=N)N)C(=O)N[C@@H](C)C(=O)N[C@@H]([C@@H](C)O)C(=O)NCC(=O)N[C@@H](Cc1ccccc1)C(=O)N2` [Cyclic [R27G]MCoFx7] (cyclo(ACICRATGFCGSGSDGGICPRIGRLCRRDSDCPG); disulfide 2-19, 4-26, 10-32) gave a Ki (Human β-FXIIa [1]) of 0.21 ± 0.008 nM.
`CC[C@H](C)[C@@H]1NC(=O)CNC(=O)CNC(=O)[C@H](CC(=O)O)NC(=O)[C@H](CO)NC(=O)CNC(=O)[C@H](CO)NC(=O)CNC(=O)[C@@H]2CSSC[C@@H]3NC(=O)[C@H](CC(=O)O)NC(=O)[C@H](CO)NC(=O)[C@H](CC(=O)O)NC(=O)[C@H](CCCNC(=N)N)NC(=O)[C@H](CCCNC(=N)N)NC(=O)[C@@H]4CSSC[C@H](NC(=O)[C@H]([C@@H](C)CC)NC(=O)[C@H](CSSC[C@H](NC1=O)C(=O)N1CCC[C@H]1C(=O)N[C@@H](CCCNC(=N)N)C(=O)N[C@@H]([C@@H](C)CC)C(=O)NCC(=O)N[C@@H](CCCNC(=N)N)C(=O)N[C@@H](CC(C)C)C(=O)N4)NC(=O)[C@H](C)NC(=O)CNC(=O)[C@@H]1CCCN1C3=O)C(=O)N[C@@H](CCCNC(=N)N)C(=O)N[C@@H](C)C(=O)N[C@@H]([C@@H](C)O)C(=O)N[C@@H](Cc1c[nH]cn1)C(=O)N[C@@H](Cc1ccccc1)C(=O)N2` [Cyclic [R27H]MCoFx7] (cyclo(ACICRATHFCGSGSDGGICPRIGRLCRRDSDCPG); disulfide 2-19, 4-26, 10-32) was tested, and the Ki (Human β-FXIIa [1]) was 0.12 ± 0.008 nM.
With `CC[C@H](C)[C@H](NC(=O)CNC(=O)CNC(=O)[C@@H](N)CC(=O)O)C(=O)N[C@H]1CSSC[C@@H]2NC(=O)[C@H](C)NC(=O)CNC(=O)[C@@H]3CCCN3C(=O)[C@@H]3CSSC[C@@H](C(=O)NCC(=O)N[C@@H](CO)C(=O)NCC(=O)N[C@@H](CO)C(=O)O)NC(=O)[C@H](Cc4ccc(O)cc4)NC(=O)[C@H]([C@@H](C)O)NC(=O)[C@H](CCCNC(=N)N)NC(=O)[C@H](CCCNC(=N)N)NC(=O)[C@H]([C@@H](C)CC)NC(=O)[C@H](CSSC[C@H](NC(=O)[C@H](Cc4ccc(O)cc4)NC(=O)[C@H](C(C)C)NC(=O)[C@H](CC(C)C)NC(=O)[C@H]([C@@H](C)CC)NC(=O)[C@H](CCCNC(=N)N)NC(=O)[C@@H]4CCCN4C1=O)C(=O)N[C@@H](CCCNC(=N)N)C(=O)N[C@@H](CCCNC(=N)N)C(=O)N[C@@H](CC(=O)O)C(=O)N[C@@H](CO)C(=O)N[C@@H](CC(=O)O)C(=O)N3)NC(=O)[C@H]([C@@H](C)CC)NC2=O` [MCoFx2 acyclic] (H-DGGICPRILVYCRRDSDCPGACICIRRTYCGSGS-OH; disulfide 5-22, 12-24, 18-30) the Kd (bovine trypsin) was under 0.1 nM, the Ki (Human β-FXIIa [2]) was 73 ± 3 nM and the Kd [3] was 45.4 ± 2.9 nM.
